In patent US20260085062A1, “NOVEL COMPOUNDS AS CK2 INHIBITORS” (Cambridge Enterprise Limited, priority 2022, published 2026) one finds IC50 data, which are given here for 21 compounds.

For experiment [1], the target named is T1, CK2α (Homo sapiens, UniProt P68400).
T1 construct: CK2α (residues 2-329) was produced in Escherichia coli BL21 (DE3) for kinase activity screening; His6 (N, cleaved yes); made in house; host or cells: Escherichia coli BL21 (DE3)
T1 sequence (P68400 2-329): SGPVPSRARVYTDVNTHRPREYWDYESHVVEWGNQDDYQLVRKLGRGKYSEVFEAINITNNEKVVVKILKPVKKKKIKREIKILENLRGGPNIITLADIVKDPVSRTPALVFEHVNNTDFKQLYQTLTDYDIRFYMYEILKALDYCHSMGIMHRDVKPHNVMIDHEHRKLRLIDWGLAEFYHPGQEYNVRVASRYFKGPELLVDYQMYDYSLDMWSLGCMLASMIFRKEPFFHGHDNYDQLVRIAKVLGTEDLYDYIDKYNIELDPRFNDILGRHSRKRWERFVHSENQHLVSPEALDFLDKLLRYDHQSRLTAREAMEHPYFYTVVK
In words: Biochemical assay for inhibitors of CK2α kinase activity (ADP-Glo). As to conditions: 0.2 nM CK2α, 50 μM peptide substrate, 15 μM ATP, read-out: Assay 1: CK2α Enzyme IC50. For orientation: ADP-Glo turns the ADP formed in a reaction into a luminescent signal.

The target of experiment [2] is T2, CLK2 (Homo sapiens, UniProt P49760).
T2 construct: purchased Carna Biosciences 04-127
In words: Biochemical assay for inhibitors of CLK2 kinase activity (ADP-Glo). As to conditions: 20 nM CLK2, 50 μM peptide substrate, 100 μM ATP, read-out: Assay 2: CLK2 Enzyme IC50.

Experiment [3] addresses T3, intracellular CK2α (Homo sapiens, UniProt P19784).
T3 construct: host or cells: HCT116 (ATCC CCL-247)
In words: Cell-based NanoBRET assay for inhibitor binding to intracellular CK2α. As to conditions: HCT116 cells transiently transfected with CSNK2A2-NanoLuc fusion vector; Tracer K-5; 2 h; read-out: Assay 3: NanoBRET ™ assay for binding to intracellular CK2α. A digest of the protocol: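 Apparent affinity came from BRET ratio (acceptor/donor ×1,000), with donor read at 450 nm and acceptor at 610 or 630 nm. Compounds competed off a tracer added at fixed concentration to cells carrying a NanoLuc-CK2α fusion.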
(In general: In BRET a luciferase serves as donor, and the signal depends on an acceptor being close.)

Each structure is given as a SMILES string.

T2 sequence (P49760 whole entry): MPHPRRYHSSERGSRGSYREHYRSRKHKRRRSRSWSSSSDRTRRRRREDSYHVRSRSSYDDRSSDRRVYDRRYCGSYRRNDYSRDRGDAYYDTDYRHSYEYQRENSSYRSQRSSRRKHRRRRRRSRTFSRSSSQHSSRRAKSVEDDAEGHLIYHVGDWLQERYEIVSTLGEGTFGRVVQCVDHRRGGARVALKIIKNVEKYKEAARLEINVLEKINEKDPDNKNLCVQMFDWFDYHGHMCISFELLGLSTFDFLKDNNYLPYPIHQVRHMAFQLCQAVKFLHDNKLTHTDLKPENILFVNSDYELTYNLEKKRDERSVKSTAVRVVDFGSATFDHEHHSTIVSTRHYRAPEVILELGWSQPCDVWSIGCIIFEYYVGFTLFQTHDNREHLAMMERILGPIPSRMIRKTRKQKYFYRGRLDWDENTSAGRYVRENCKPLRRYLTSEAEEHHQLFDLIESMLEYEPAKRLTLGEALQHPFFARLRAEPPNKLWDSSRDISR
T3 sequence (P19784 whole entry): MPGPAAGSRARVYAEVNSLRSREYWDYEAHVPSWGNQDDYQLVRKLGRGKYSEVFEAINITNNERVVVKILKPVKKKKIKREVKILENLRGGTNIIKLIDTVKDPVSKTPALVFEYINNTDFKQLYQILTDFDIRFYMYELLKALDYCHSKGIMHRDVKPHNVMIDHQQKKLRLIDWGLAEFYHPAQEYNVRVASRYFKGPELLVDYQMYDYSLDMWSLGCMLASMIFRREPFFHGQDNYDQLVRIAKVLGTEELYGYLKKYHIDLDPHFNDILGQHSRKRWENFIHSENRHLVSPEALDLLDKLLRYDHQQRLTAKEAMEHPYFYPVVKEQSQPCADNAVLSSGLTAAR

As for `O=C(CCNCc1ccc(OC(F)(F)F)c(Cl)c1)NCCCNc1cc(-c2ccncc2)c(Cl)c2[nH]ncc12` [Example 158, 3-((3-chloro-4-(trifluoromethoxy)benzyl)amino)-N-(3-((7-chloro-6-(pyridin-4-yl)-1H-indazol-4-yl)amino)propyl)propanamide], the IC50 came to 11 nM in experiment [1], 614 nM in experiment [2] and 738 nM in experiment [3].

As to `Cc1[nH]ncc1-c1cc(NCCCNC(=O)CCNCc2ccc(OC(F)(F)F)c(Cl)c2)c2cn[nH]c2c1` [Example 159, 3-((3-chloro-4-(trifluoromethoxy)benzyl)amino)-N-(3-((6-(5-methyl-1H-pyrazol-4-yl)-1H-indazol-4-yl)amino)propyl)propanamide], the IC50 in experiment [1] worked out at 1.93 nM; in experiment [2], 64.3 nM; in experiment [3], 703 nM.

Turning to `N#Cc1cc(NCCCNC(=O)CCNCc2ccc(OC(F)(F)F)c(Cl)c2)c2cn[nH]c2c1` [Example 160, 3-((3-chloro-4-(trifluoromethoxy)benzyl)amino)-N-(3-((6-cyano-1H-indazol-4-yl)amino)propyl)propanamide], the IC50 was 19.1 nM in experiment [1], 221 nM in experiment [2] and 1110 nM in experiment [3].

As for `O=C(CCNCc1ccc(OC(F)(F)F)c(Cl)c1)NCCCNc1cc(-n2ccnn2)cc2[nH]ncc12` [Example 161, N-(3-((6-(1H-1,2,3-triazol-1-yl)-1H-indazol-4-yl)amino)propyl)-3-((3-chloro-4-(trifluoromethoxy)benzyl)amino)propanamide], the values for the IC50 in experiment [1], in experiment [2] and in experiment [3] were 2.02 nM, 667 nM and 193 nM, respectively.

With `O=C(CCNCc1ccc(OC(F)(F)F)c(Cl)c1)NCCCNc1cc(-c2ccncc2F)cc2[nH]ncc12` [Example 162, 3-((3-chloro-4-(trifluoromethoxy)benzyl)amino)-N-(3-((6-(3-fluoropyridin-4-yl)-1H-indazol-4-yl)amino)propyl)propanamide], the IC50 was found to be 6.53 nM in experiment [1], 807 nM in experiment [2] and 402 nM in experiment [3].

On to `O=C(CCNCc1ccc(OC(F)(F)F)c(Cl)c1)NCCCNc1cccc2[nH]ncc12` [Example 163, N-(3-((1H-indazol-4-yl)amino)propyl)-3-((3-chloro-4-(trifluoromethoxy)benzyl)amino)propanamide], for which the IC50 in experiment [1] is 217 nM; in experiment [2], 6570 nM; in experiment [3] it was 26800 nM.

As to `O=C(CCNCc1ccc(OC(F)(F)F)c(Cl)c1)NCCCNc1cc(-c2cnco2)cc2[nH]ncc12` [Example 164, 3-((3-chloro-4-(trifluoromethoxy)benzyl)amino)-N-(3-((6-(oxazol-5-yl)-1H-indazol-4-yl)amino)propyl)propanamide], the IC50 in experiment [1] was 2.98 nM; in experiment [2], 242 nM; in experiment [3], 134 nM.

For the compound `Cc1cnccc1-c1cc(NCCCNC(=O)CCNCc2ccc(OC(F)(F)F)c(Cl)c2)c2cn[nH]c2c1` [Example 165, 3-((3-chloro-4-(trifluoromethoxy)benzyl)amino)-N-(3-((6-(3-methylpyridin-4-yl)-1H-indazol-4-yl)amino)propyl)propanamide], the IC50 in experiment [1] stood at 72.9 nM; in experiment [2], 7320 nM; in experiment [3], 3740 nM.

Take `Fc1cc(CNCCCCOCCNc2cc(-c3ccncc3)c(Cl)c3[nH]ncc23)cc(F)c1OC(F)(F)F` [Example 166, 7-chloro-N-(2-(4-((3,5-difluoro-4-(trifluoromethoxy)benzyl)amino)butoxy)ethyl)-6-(pyridin-4-yl)-1H-indazol-4-amine]: the figures for the IC50 in experiment [1], in experiment [2] and in experiment [3] were 21.3 nM, 783 nM and 2670 nM, respectively.

As to `N#Cc1cc(NCCOCCCCNCc2cc(F)c(OC(F)(F)F)c(F)c2)c2cn[nH]c2c1` [Example 167, 4-((2-(4-((3,5-difluoro-4-(trifluoromethoxy)benzyl)amino)butoxy)ethyl)amino)-1H-indazole-6-carbonitrile], the IC50 stood at 21 nM in experiment [1], 774 nM in experiment [2] and 831 nM in experiment [3].

In the case of `O=C(CCNCc1ccc(OC(F)(F)F)c(Cl)c1)NCCCNc1cc(-c2cn[nH]c(=O)c2)cc2[nH]ncc12` [Example 168, 3-((3-chloro-4-(trifluoromethoxy)benzyl)amino)-N-(3-((6-(6-oxo-1,6-dihydropyridazin-4-yl)-1H-indazol-4-yl)amino)propyl)propanamide], the IC50 was 0.64 nM in experiment [1], 81.2 nM in experiment [2] and 208 nM in experiment [3].

In the case of `O=C(CCNCc1ccc(OC(F)(F)F)c(Cl)c1)NCCCNc1cc(-c2ccncc2Cl)cc2[nH]ncc12` [Example 169, 3-((3-chloro-4-(trifluoromethoxy)benzyl)amino)-N-(3-((6-(3-chloropyridin-4-yl)-1H-indazol-4-yl)amino)propyl)propanamide], the IC50 in experiment [1] is 79.2 nM; in experiment [2], 5680 nM; in experiment [3] it was 6510 nM.

Regarding `O=C(CCNCc1ccc(OC(F)(F)F)c(Cl)c1)NCCCNc1cc(-c2cc[nH]c(=O)n2)cc2[nH]ncc12` [Example 170, 3-((3-chloro-4-(trifluoromethoxy)benzyl)amino)-N-(3-((6-(2-oxo-1,2-dihydropyrimidin-4-yl)-1H-indazol-4-yl)amino)propyl)propanamide], the IC50 in experiment [1] was 6.64 nM; in experiment [2], 6390 nM; in experiment [3] it was over 50000 nM.

As to `Fc1cc(CNCCCCOCCNCc2cc(-n3cnnc3)cc3[nH]ncc23)cc(F)c1OC(F)(F)F` [Example 171, 4-(2-(((6-(4H-1,2,4-triazol-4-yl)-1H-indazol-4-yl)methyl)amino)ethoxy)-N-(3,5-difluoro-4-(trifluoromethoxy)benzyl)butan-1-amine], the IC50 turned out to be 45.3 nM in experiment [1], 23300 nM in experiment [2] and 4900 nM in experiment [3].

With `O=C(CCNCc1ccc(OC(F)(F)F)c(Cl)c1)NCCCNCc1cc(-n2cnnc2)cc2[nH]ncc12` [Example 172, N-(3-(((6-(4H-1,2,4-triazol-4-yl)-1H-indazol-4-yl)methyl)amino)propyl)-3-((3-chloro-4-(trifluoromethoxy)benzyl)amino)propanamide], the IC50 in experiment [1] was 126 nM; in experiment [2], 44600 nM; in experiment [3], over 50000 nM.

On to `O=C(CCNCc1ccc(OC(F)(F)F)c(Cl)c1)NCCCNc1cc(-c2ncno2)cc2[nH]ncc12` [Example 173, N-(3-((6-(1,2,4-oxadiazol-5-yl)-1H-indazol-4-yl)amino)propyl)-3-((3-chloro-4-(trifluoromethoxy)benzyl)amino)propanamide], for which the IC50 in experiment [1] turned out to be 1.17 nM; in experiment [2] it was 3170 nM; in experiment [3], 361 nM.

Regarding `O=C(CCNCc1ccc(OC(F)(F)F)c(Cl)c1)NCCCNc1cc(-c2nnc[nH]2)cc2[nH]ncc12` [Example 174, N-(3-((6-(4H-1,2,4-triazol-3-yl)-1H-indazol-4-yl)amino)propyl)-3-((3-chloro-4-(trifluoromethoxy)benzyl)amino)propanamide], the IC50 in experiment [1] worked out at 7.41 nM; in experiment [2], 5980 nM; in experiment [3], 4640 nM.

On to `O=C(CCNCc1ccc(OC(F)(F)F)c(Cl)c1)NCCCNc1cc(-c2cocn2)cc2[nH]ncc12` [Example 175, 3-((3-chloro-4-(trifluoromethoxy)benzyl)amino)-N-(3-((6-(oxazol-4-yl)-1H-indazol-4-yl)amino)propyl)propanamide], for which the IC50 is 10.7 nM in experiment [1], 1910 nM in experiment [2] and 1240 nM in experiment [3].

Regarding `Fc1cc(CNCCCCOCCNc2cc(-c3ccncc3)c(F)c3[nH]ncc23)cc(F)c1OC(F)(F)F` [Example 176, N-(2-(4-((3,5-difluoro-4-(trifluoromethoxy)benzyl)amino)butoxy)ethyl)-7-fluoro-6-(pyridin-4-yl)-1H-indazol-4-amine], the results for the IC50 in experiment [1], in experiment [2] and in experiment [3] were 5.99 nM, 332 nM and 217 nM, respectively.

Turning to `N#Cc1nncn1-c1cc(NCCCNC(=O)CCNCc2ccc(OC(F)(F)F)c(Cl)c2)c2cn[nH]c2c1` [Example 177, 3-((3-chloro-4-(trifluoromethoxy)benzyl)amino)-N-(3-((6-(3-cyano-4H-1,2,4-triazol-4-yl)-1H-indazol-4-yl)amino)propyl)propanamide], the IC50 was 56.2 nM in experiment [1], 1250 nM in experiment [2] and 11700 nM in experiment [3].

In the case of `Cc1c(-c2ccncc2)cc(NCCCNC(=O)CCNCc2ccc(OC(F)(F)F)c(Cl)c2)c2cn[nH]c12` [Example 178, 3-((3-chloro-4-(trifluoromethoxy)benzyl)amino)-N-(3-((7-methyl-6-(pyridin-4-yl)-1H-indazol-4-yl)amino)propyl)propanamide], the values for the IC50 in experiment [1], in experiment [2] and in experiment [3] were 23.9 nM, 1500 nM and 2540 nM, respectively.
